Measurements as given in ChEMBL document CHEMBL1201862, “PubChem BioAssay data set” (2004).
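Five concentrations, 48 hours, 96-well plates. GI50: concentration for 50% inhibition of growth.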 Calls of active or inactive are those of the source. Cut-off read from the data, not from the text of the source: active = GI50 up to about 1.1 µM and inactive = higher.

How the values were obtained:
Test in all cases: NCI-60 cell line screen, 48 h
BT-549 = test system: BT-549
RPMI-8226 = test system: RPMI-8226
HL-60 = test system: HL-60
SNB-19 = test system: SNB-19
UACC-62 = test system: UACC-62
NCI-H522 = test system: NCI-H522
SF-268 = test system: SF-268
KM12 = test system: KM12
K562 = test system: K562
CCRF-CEM = test system: CCRF-CEM
TK-10 = test system: TK-10
NCI-H460 = test system: NCI-H460
CAKI-1 = test system: CAKI-1
MOLT-4 = test system: MOLT-4
MDA-MB-231 = test system: MDA-MB-231
SF-539 = test system: SF-539
HCC 2998 = test system: HCC 2998
RXF 393 = test system: RXF 393
SW-620 = test system: SW-620
ACHN = test system: ACHN
COLO 205 = test system: COLO 205
SK-MEL-2 = test system: SK-MEL-2
UO-31 = test system: UO-31
HCT-15 = test system: HCT-15
OVCAR-3 = test system: OVCAR-3
IGROV-1 = test system: IGROV-1
SK-OV-3 = test system: SK-OV-3
EKVX = test system: EKVX
Malme-3M = test system: Malme-3M
A498 = test system: A498
UACC-257 = test system: UACC-257
Hs-578T = test system: Hs-578T
HT-29 = test system: HT-29
MDA-MB-435 = test system: MDA-MB-435
SK-MEL-28 = test system: SK-MEL-28
SF-295 = test system: SF-295
HOP-62 = test system: HOP-62
HCT-116 = test system: HCT-116
OVCAR-4 = test system: OVCAR-4
NCI-H226 = test system: NCI-H226
SK-MEL-5 = test system: SK-MEL-5
HOP-92 = test system: HOP-92
OVCAR-5 = test system: OVCAR-5
SNB-75 = test system: SNB-75
M14 = test system: M14
786-0 = test system: 786-0
NCI/ADR-RES = test system: NCI/ADR-RES
OVCAR-8 = test system: OVCAR-8
SR = test system: SR
A549 = test system: A549
U-251 = test system: U-251
MCF7 = test system: MCF7
PC-3 = test system: PC-3
MDA-N = test system: MDA-N
NCI-H23 = test system: NCI-H23
SN12C = test system: SN12C
LOX IMVI = test system: LOX IMVI
DU-145 = test system: DU-145
T47D = test system: T47D

With O=S(=O)(O)c1cc(/N=N/c2c(O)ccc3ccccc23)cc2c(S(=O)(=O)O)cccc12 the GI50 (BT-549) was > 100 µM (inactive), the GI50 (RPMI-8226) was > 100 µM (inactive) and the GI50 (HL-60) was > 100 µM (inactive). For the same compound, the GI50 (SNB-19) was > 100 µM (inactive), the GI50 (UACC-62) was > 100 µM (inactive) and the GI50 (NCI-H522) was > 100 µM (inactive). The GI50 (SF-268) was > 100 µM (inactive), the GI50 (KM12) was > 100 µM (inactive) and the GI50 (K562) was > 100 µM (inactive). For the same compound, the GI50 (CCRF-CEM) was > 100 µM (inactive), the GI50 (TK-10) was > 100 µM (inactive) and the GI50 (NCI-H460) was > 100 µM (inactive). The GI50 (CAKI-1) was > 100 µM (inactive), the GI50 (MOLT-4) was > 100 µM (inactive) and the GI50 (MDA-MB-231) was > 100 µM (inactive). For the same compound, the GI50 (SF-539) was > 100 µM (inactive), the GI50 (HCC 2998) was > 100 µM (inactive) and the GI50 (RXF 393) was > 100 µM (inactive). The GI50 (SW-620) was > 100 µM (inactive), the GI50 (ACHN) was > 100 µM (inactive) and the GI50 (COLO 205) was > 100 µM (inactive). For the same compound, the GI50 (SK-MEL-2) was > 100 µM (inactive), the GI50 (UO-31) was > 100 µM (inactive) and the GI50 (HCT-15) was over 100 µM. The GI50 (OVCAR-3) was > 100 µM (inactive), the GI50 (IGROV-1) was > 100 µM (inactive) and the GI50 (SK-OV-3) was > 100 µM (inactive). For the same compound, the GI50 (EKVX) was > 100 µM (inactive), the GI50 (Malme-3M) was 33.7 µM (inactive) and the GI50 (A498) was > 100 µM (inactive). For the same compound, the GI50 (UACC-257) was > 100 µM (inactive), the GI50 (Hs-578T) was > 100 µM (inactive) and the GI50 (HT-29) was > 100 µM (inactive). For the same compound, the GI50 (MDA-MB-435) was > 100 µM (inactive), the GI50 (SK-MEL-28) was > 100 µM (inactive) and the GI50 (SF-295) was > 100 µM (inactive). The GI50 (HOP-62) was > 100 µM (inactive), the GI50 (HCT-116) was > 100 µM (inactive) and the GI50 (OVCAR-4) was > 100 µM (inactive). The GI50 (NCI-H226) was > 100 µM (inactive), the GI50 (SK-MEL-5) was > 100 µM (inactive) and the GI50 (HOP-92) was > 100 µM (inactive). For the same compound, the GI50 (OVCAR-5) was > 100 µM (inactive), the GI50 (SNB-75) was > 100 µM (inactive) and the GI50 (M14) was > 100 µM (inactive). The GI50 (786-0) was > 100 µM (inactive), the GI50 (NCI/ADR-RES) was > 100 µM (inactive) and the GI50 (OVCAR-8) was > 100 µM (inactive). The GI50 (SR) was > 100 µM (inactive), the GI50 (A549) was > 100 µM (inactive) and the GI50 (U-251) was > 100 µM (inactive). For the same compound, the GI50 (MCF7) was > 100 µM (inactive) and the GI50 (PC-3) was > 100 µM (inactive).
For CCOC(=O)c1sc2nc(SC)nc3c2c1NC(=O)CN3c1cccc(F)c1, the GI50 (BT-549) was 7.29 µM (inactive), the GI50 (RPMI-8226) was 9.12 µM (inactive) and the GI50 (HL-60) was 0.491 µM (active). For the same compound, the GI50 (SNB-19) was 20.3 µM (inactive), the GI50 (UACC-62) was 30.5 µM (inactive) and the GI50 (NCI-H522) was 26.5 µM (inactive). For the same compound, the GI50 (SF-268) was 12.4 µM (inactive), the GI50 (KM12) was 80.5 µM (inactive) and the GI50 (MDA-N) was 29.8 µM (inactive). For the same compound, the GI50 (K562) was 22.4 µM (inactive), the GI50 (TK-10) was 28.4 µM (inactive) and the GI50 (NCI-H460) was 26.4 µM (inactive). For the same compound, the GI50 (CAKI-1) was 44.3 µM (inactive), the GI50 (MOLT-4) was 30 µM (inactive) and the GI50 (MDA-MB-231) was 16.1 µM (inactive). For the same compound, the GI50 (SF-539) was 0.735 µM (active), the GI50 (NCI-H23) was 27 µM (inactive) and the GI50 (RXF 393) was 16.7 µM (inactive). The GI50 (SW-620) was 0.834 µM (active), the GI50 (ACHN) was 13 µM (inactive) and the GI50 (COLO 205) was 17.5 µM (inactive). For the same compound, the GI50 (SK-MEL-2) was 27.4 µM (inactive), the GI50 (UO-31) was 15.5 µM (inactive) and the GI50 (OVCAR-3) was 19.7 µM (inactive). For the same compound, the GI50 (IGROV-1) was 61.8 µM (inactive), the GI50 (SK-OV-3) was 20 µM (inactive) and the GI50 (EKVX) was 46 µM (inactive). For the same compound, the GI50 (Malme-3M) was 30.3 µM (inactive), the GI50 (A498) was 18.2 µM (inactive) and the GI50 (UACC-257) was 63.5 µM (inactive). For the same compound, the GI50 (Hs-578T) was 29.2 µM (inactive), the GI50 (HT-29) was 32.6 µM (inactive) and the GI50 (MDA-MB-435) was 27.5 µM (inactive). For the same compound, the GI50 (SN12C) was 17.2 µM (inactive), the GI50 (SK-MEL-28) was 0.138 µM (active) and the GI50 (SF-295) was 16.3 µM (inactive). The GI50 (HOP-62) was 14.5 µM (inactive), the GI50 (HCT-116) was 18.2 µM (inactive) and the GI50 (OVCAR-4) was 17.9 µM (inactive). The GI50 (NCI-H226) was 6.93 µM (inactive), the GI50 (SK-MEL-5) was 0.855 µM (active) and the GI50 (HOP-92) was 22.5 µM (inactive). For the same compound, the GI50 (OVCAR-5) was 45 µM (inactive), the GI50 (M14) was 20.5 µM (inactive) and the GI50 (OVCAR-8) was 15.5 µM (inactive). The GI50 (LOX IMVI) was 17.8 µM (inactive), the GI50 (DU-145) was 26.7 µM (inactive) and the GI50 (SR) was 70 µM (inactive). For the same compound, the GI50 (A549) was 14 µM (inactive), the GI50 (U-251) was 14.4 µM (inactive) and the GI50 (MCF7) was 29 µM (inactive). For the same compound, the GI50 (PC-3) was 17.3 µM (inactive).
With CC(=O)Oc1cc(/C=C/c2ccc(O)cc2)cc(OC(C)=O)c1 the GI50 (RPMI-8226) was 4.7 µM (inactive), the GI50 (HL-60) was 18.8 µM (inactive) and the GI50 (SNB-19) was 55.8 µM (inactive). For the same compound, the GI50 (UACC-62) was 18.2 µM (inactive), the GI50 (NCI-H522) was 26 µM (inactive) and the GI50 (SF-268) was 43.2 µM (inactive). The GI50 (KM12) was 24.1 µM (inactive), the GI50 (K562) was 20.7 µM (inactive) and the GI50 (TK-10) was 24.9 µM (inactive). The GI50 (NCI-H460) was 33.9 µM (inactive), the GI50 (CAKI-1) was 35.7 µM (inactive) and the GI50 (MOLT-4) was 16.8 µM (inactive). The GI50 (MDA-MB-231) was 25.5 µM (inactive), the GI50 (SF-539) was 12.8 µM (inactive) and the GI50 (NCI-H23) was 11.7 µM (inactive). The GI50 (RXF 393) was 58.1 µM (inactive), the GI50 (SW-620) was 26.1 µM (inactive) and the GI50 (ACHN) was 9.59 µM (inactive). For the same compound, the GI50 (COLO 205) was > 100 µM (inactive), the GI50 (SK-MEL-2) was 63.5 µM (inactive) and the GI50 (UO-31) was 36.4 µM (inactive). The GI50 (HCT-15) was 26.5 µM, the GI50 (OVCAR-3) was 48 µM (inactive) and the GI50 (IGROV-1) was 64.9 µM (inactive). The GI50 (SK-OV-3) was > 100 µM (inactive), the GI50 (Malme-3M) was 17.7 µM (inactive) and the GI50 (A498) was 25.4 µM (inactive). The GI50 (UACC-257) was 30.9 µM (inactive), the GI50 (Hs-578T) was 58.5 µM (inactive) and the GI50 (HT-29) was 19.3 µM (inactive). The GI50 (MDA-MB-435) was 28.1 µM (inactive), the GI50 (SN12C) was 19 µM (inactive) and the GI50 (SK-MEL-28) was 66.5 µM (inactive). The GI50 (SF-295) was 28.8 µM (inactive), the GI50 (HOP-62) was 48.2 µM (inactive) and the GI50 (HCT-116) was 35.6 µM (inactive). The GI50 (OVCAR-4) was 18.3 µM (inactive), the GI50 (NCI-H226) was 24.7 µM (inactive) and the GI50 (SK-MEL-5) was 14.5 µM (inactive). The GI50 (HOP-92) was 25 µM (inactive), the GI50 (OVCAR-5) was 46 µM (inactive) and the GI50 (SNB-75) was 22.1 µM (inactive). The GI50 (M14) was 64.6 µM (inactive), the GI50 (786-0) was 37.5 µM (inactive) and the GI50 (NCI/ADR-RES) was 16.3 µM (inactive). For the same compound, the GI50 (OVCAR-8) was 35.8 µM (inactive), the GI50 (DU-145) was 27.2 µM (inactive) and the GI50 (SR) was 17.3 µM (inactive). The GI50 (A549) was 24.8 µM (inactive), the GI50 (U-251) was 29.9 µM (inactive) and the GI50 (MCF7) was 40 µM (inactive). The GI50 (PC-3) was 21.5 µM (inactive) and the GI50 (T47D) was 51.3 µM (inactive).
